Converted amounts (≈) assume the structure as drawn. Read-outs that look alike come from different tables or passages of the source.
Tests used:
[1] = molecular target: T1, human topoIIα (Homo sapiens, UniProt P11388); test: topoII decatenation assay (Inspiralis); format: biochemical; settings: human topoIIα decatenation assay; mean ± SD of two independent experiments; read-out: IC50
T1 construct: purchased Inspiralis
Method: We measured the inhibitor activity of our new compounds against human topoIIα, using a topoII decatenation assay (Table 1).
The activity of topoIIα was measured using a decatenation assay (Inspiralis) following the manufacturer’s instructions. Compounds were dissolved in DMSO and used at a concentration ranging from 200 to 1 μM. Final DMSO concentration in the assay was ≤1%. Reaction mixtures were incubated for 30 min at 37 °C and terminated with STEB buffer (40% (w/v) sucrose, 100 mM Tris-HCl, pH 8, 1 mM EDTA, 0.5 mg/mL bromophenol blue). Reaction products were resolved by electrophoresis in 1% agarose gels containing SYBR Safe DNA stain (Invitrogen), scanned, and quantified using the ChemiDoc system (BioRad). IC50 values were obtained with GraphPad Prism software (version 5.03) using the band intensities of the dose–response gels. Values are reported as the mean ± SD of two independent experiments.

[2] = system: DU145 cells; test: cell viability MTT assay, DU145; format: cell-based, human; settings: Homo sapiens, DU-145, DU145 prostate cancer cells, mean ± SD of two experiments, read-out: DU145 antiproliferative activity IC50
Method: (§1) The antiproliferative activity of all compounds was evaluated in (i) DU145, an androgen-independent prostate cancer cell line; (ii) HeLa, a cervical cancer cell line; and (iii) A549, a lung adenocarcinoma cell line (Table 1). […] Undoubtedly, this preliminary cytotoxicity data will need further characterization, also in relation to the in vitro activity of these compounds.
(§2) Human cancer cell lines A549 (lung adenocarcinoma, ATCC CCL-185), DU-145 (androgen-independent prostate cancer, ATCC HTB-81), and HeLa (cervical carcinoma, ATCC CCL-2) were obtained from ATCC. Cells were routinely grown in minimal essential medium containing Eagle’s salts and L-glutamine supplemented with 10% heat-inactivated FBS in a humidified atmosphere of 5% CO2 at 37 °C. To assess the antiproliferative activity of the compounds, cells were seeded at a density of 2500 cells/well (HeLa) or 5000 cells/well (A549, DU-145) in 96-well plates, and cell viability was measured using the MTT assay as described previously.[39] Values are reported as the mean ± SD of two independent experiments.

[3] = system: HeLa cells; test: cell viability MTT assay, HeLa; format: cell-based, human; settings: Homo sapiens, HeLa, HeLa cervical cancer cells, mean ± SD of two experiments, read-out: HeLa antiproliferative activity IC50
Method: as §1, §2

[4] = system: A549 cells; test: cell viability MTT assay, A549; format: cell-based, human; settings: Homo sapiens, A549, A549 lung adenocarcinoma cells, mean ± SD of two experiments, read-out: A549 antiproliferative activity IC50
Method: as §1, §2

[5] = aqueous kinetic solubility; format: physicochemical; settings: PBS, pH 7.4, PBS pH 7.4, target 250 µM, 2.5% DMSO, 25°C
Method: 1. In vitro m etabolic stabili ty
In vitro microsomial stability. 10mM DMSO stock solution of test compound was pre-incubated at 37 °C for 15min with mouse liver microsomes added 0.1M Tris-HCl buffer (pH 7.4). The final concentration was 4.6µM. After pre -incubation, the co-factors (NADPH, G6P, G6PDH and MgCl2 pre-dissolved in 0.1M Tris-HCl) were added to the incubation mixture and the incubation was continued at 37 °C for 1h. At each time point (0, 5, 15, 30, 60min), 30µL of incubation mixture was diluted with 200µL cold CH 3CN spiked with 200n M of internal standard, followed by centrifugation at 3500g for 15min. The supernatant was further diluted with H2O (1:1) for analysis. The concentration of test compound was quantified by LC/MS-MS on a Waters ACQUITY UPLC/M S TQD system consisting of a TQD (Triple Quadrupole Detector) Mass Spectrometer equipped with an Electrospray Ionization interface. The analyses were run on an ACQUITY UPLC BEH C18 (50x2.1mmID, particle size 1.7µm) with a VanGuard BEH C18 pre -column (5x2.1mmID, particle size 1.7µm) at 40°C, using 0.1% HCOOH in H 2O (A) and 0.1% HCOOH in CH 3CN (B) as mobile phase. Electrospray ionization (ESI) was app lied in positive mode . The percentage of test compound remaining at each time point relative to t=0 was calculated. The half -lives (t½) were determined by an one-phase decay equation using a non -linear regression of compound concentration versus time.
In vitro Plasma Stability. 10mM DMSO stock solution of test compound was diluted 50 -fold with DMSO-H2O (1:1) and incubated at 37 °C for 2 h with mouse plasma added 5% DMSO (pre-heated at 37 °C for 10 min). The final concentration was 2µM. At each time point (0, 5, 15, 30, 60, 120min), 50 µL of incubation mixture was diluted with 200µL cold CH3CN spiked with 200nM of internal standard, followed by centrifugation at 3500g for 20min. The supernatant was further diluted with H2O (1:1) for analysis. The concentration of test compound was quantified by LC/MS-MS on a Waters ACQUITY UPLC/MS TQD system consisting of a TQD (Triple Quadrupole Detector) Mass Spectrometer equipped with an Electrospray Ionization interface. The analyses were run on an ACQUITY UPLC BEH C18 (50x2.1mmID, particle size 1.7µm) with a VanGuard BEH C18 pre - column (5x2.1mmID, particle size 1.7µm) at 40°C, using 0.1% HCOOH in H2O (A) and 0.1% HCOOH in CH3CN (B) as mobile phase. Electrospray ionization (ESI) was applied in positive mode.
The response factors, calculated on the basis of the internal standard peak area, were plotted over time. When possible, response vs. time profiles were fitted with Prism (GraphPad Software, Inc., USA) to estimate compounds half-life in plasma.
2. Aqueous ki netic solu bili ty
The aqueous kinetic solubility was determined from a 10mM DMSO stock solution of test compound in Phosphate Buffered Saline (PBS) at pH 7.4. The study was performed by incubation of an aliquot of 10mM DMSO stock solution in PBS (pH 7.4) at a target concentration of 250µM resulting in a final concentration of 2.5% DMSO. The incubation was carried out under shaking at 25°C for 24h followed by centrifugation at 21.100g for 30min. The supernatant was analyzed by UPLC/MS for the quantification of dissolved compound by UV at a specific wavelength (215nm).
The analyses were performed on a Waters ACQUITY UPLC/MS SQD system consisting of a SQD (Single Quadrupole Detector) Mass Spectrometer equipped with Electrospray Ionization interface.
The analyses were run on an ACQUITY UPLC BEH C18 column (50x2.1mmID, particle size 1.7µm) with a VanGuard BEH C18 pre-column (5x2.1mmID, particle size 1.7µm), using 10mM NH4OAc in H2O at pH 5 adjusted with AcOH (A) and 10mM NH4OAc in MeCN-H2O (95:5) at pH 5 (B) as […]

[6] = molecular target: T2, topoII/DNA cleavage complex (Homo sapiens, UniProt P11388); test: topoisomerase II cleavage complex assay; format: biochemical; settings: 200 μM compound, 1 U topoII, plasmid DNA
T2 construct: purchased Inspiralis
T2 sequence (P11388 whole entry, one chain of several): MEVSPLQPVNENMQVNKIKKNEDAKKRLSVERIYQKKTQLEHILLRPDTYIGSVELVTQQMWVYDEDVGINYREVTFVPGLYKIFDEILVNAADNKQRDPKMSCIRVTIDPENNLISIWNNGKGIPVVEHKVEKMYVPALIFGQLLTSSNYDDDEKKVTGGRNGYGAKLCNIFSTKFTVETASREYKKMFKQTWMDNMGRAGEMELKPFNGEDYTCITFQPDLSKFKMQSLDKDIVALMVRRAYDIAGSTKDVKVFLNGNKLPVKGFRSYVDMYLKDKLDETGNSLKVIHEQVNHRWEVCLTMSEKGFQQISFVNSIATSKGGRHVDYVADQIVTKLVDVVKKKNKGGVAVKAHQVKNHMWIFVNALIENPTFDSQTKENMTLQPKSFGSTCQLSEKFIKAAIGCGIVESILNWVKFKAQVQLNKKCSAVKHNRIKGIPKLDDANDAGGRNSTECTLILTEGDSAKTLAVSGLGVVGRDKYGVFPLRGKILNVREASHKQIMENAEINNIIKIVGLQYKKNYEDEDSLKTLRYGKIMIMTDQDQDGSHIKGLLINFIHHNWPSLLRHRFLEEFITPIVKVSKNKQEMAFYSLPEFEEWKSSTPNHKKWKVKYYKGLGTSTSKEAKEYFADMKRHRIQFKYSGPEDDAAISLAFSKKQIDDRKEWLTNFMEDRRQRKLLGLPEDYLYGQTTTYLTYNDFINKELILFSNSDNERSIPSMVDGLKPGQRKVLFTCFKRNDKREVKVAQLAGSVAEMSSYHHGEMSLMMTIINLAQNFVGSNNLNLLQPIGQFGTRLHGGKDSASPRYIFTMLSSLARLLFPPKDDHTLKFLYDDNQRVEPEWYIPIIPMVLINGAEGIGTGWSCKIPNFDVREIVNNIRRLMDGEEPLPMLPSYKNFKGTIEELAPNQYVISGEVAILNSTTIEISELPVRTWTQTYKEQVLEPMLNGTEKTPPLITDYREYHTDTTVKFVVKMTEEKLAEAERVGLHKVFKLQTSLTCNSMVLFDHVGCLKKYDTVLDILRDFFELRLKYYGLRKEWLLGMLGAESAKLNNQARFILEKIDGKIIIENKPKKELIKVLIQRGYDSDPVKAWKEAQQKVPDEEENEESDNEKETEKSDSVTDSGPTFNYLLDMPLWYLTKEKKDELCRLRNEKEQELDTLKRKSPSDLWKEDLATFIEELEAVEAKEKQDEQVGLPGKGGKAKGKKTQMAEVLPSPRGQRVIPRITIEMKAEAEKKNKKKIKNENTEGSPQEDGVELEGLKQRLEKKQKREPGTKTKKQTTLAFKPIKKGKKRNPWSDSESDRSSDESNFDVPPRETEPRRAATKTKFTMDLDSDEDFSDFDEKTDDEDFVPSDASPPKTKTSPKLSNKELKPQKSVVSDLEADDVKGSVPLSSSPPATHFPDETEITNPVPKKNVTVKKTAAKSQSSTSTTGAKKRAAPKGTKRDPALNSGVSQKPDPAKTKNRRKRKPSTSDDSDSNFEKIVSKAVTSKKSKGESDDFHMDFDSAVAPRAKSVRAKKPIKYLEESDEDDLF
Method: Figure 2 Poison activity of the hybrid compounds. Agarose gel electrophoresis of plasmid DNA incubated in the absence (no enzyme) or presence of 1 U of topoII containing either 1% DMSO as control vehicle (no enzyme and topoII lanes) or 200 μM compound. Labels are shown above each lane. Numbers at the bottom correspond to the normalized intensity of the linear form (FIII). Plasmid forms are indicated by the arrow-points on the right: supercoiled (FI), nicked (FII), and linear (FIII).
Poison activity of the compounds was evaluated using a cleavage complex assay (Inspiralis) as described previously.[60] Compounds were tested at a fixed concentration of 200 μM in the presence of 1 U of topoisomerase II and 500 ng of […] plasmid at 37 °C for 6 min. Final DMSO concentration in the assay was 1%. Reaction products were subjected to electrophoresis in a 1% agarose gel, stained with SYBR Safe DNA stain, and DNA bands were visualized and quantified as described above.

[7] = system: human topoII; set-up: method as in PMID 29077404; settings: earlier values of the same authors; read-out: IC50 topoII blocker; cited from earlier work
[8] = system: DU145 cells; set-up: method as in PMID 29077404; settings: etoposide and merbarone measured in ref 39, read-out: DU145 antiproliferative activity IC50; cited from earlier work
[9] = system: HeLa cells; set-up: method as in PMID 29077404; settings: etoposide and merbarone measured in ref 39, read-out: HeLa antiproliferative activity IC50; cited from earlier work
[10] = system: A549 cells; set-up: method as in PMID 29077404; settings: etoposide and merbarone measured in ref 39, read-out: A549 antiproliferative activity IC50; cited from earlier work

T1 sequence (P11388 whole entry): as the sequence (P11388 whole entry, one chain of several) above

Compound | IC50 [1] | IC50 [2] | IC50 [3] | IC50 [4] | solubility kinetic at 24 h [5] | mode of action in cleavage complex formation assay [6] | IC50 [7] | IC50 [8] | IC50 [9] | IC50 [10]
O=C(Nc1cccc(OC(F)F)c1)c1c(O)n(-c2ccccc2)c(=S)n(-c2ccccc2)c1=O [3g, N-(3-(Difluoromethoxy)phenyl)-6-hydroxy-4-oxo-1,3-diphenyl-2-thioxo-1,2,3,4-tetrahydropyrimidine-5-carboxamide] | 10.2 ± 1.9 µM | 6.5 ± 0.9 µM | 6.4 ± 0.5 µM | 4.8 ± 0.4 µM | > 200 µM | confirmed to be poisons | – | – | – | –
O=C(Nc1cccc(C(F)F)c1)c1c(O)n(-c2ccccc2)c(=S)n(-c2ccccc2)c1=O [3i, N-(3-(Difluoromethyl)phenyl)-6-hydroxy-4-oxo-1,3-diphenyl-2-thioxo-1,2,3,4-tetrahydropyrimidine-5-carboxamide] | 11.4 ± 2.4 µM | 7.8 ± 0.2 µM | 4.9 ± 1.4 µM | 4.4 ± 0.2 µM | > 200 µM | confirmed to be poisons | – | – | – | –
COc1cccc(NC(=O)c2c(O)n(-c3ccccc3)c(=S)n(-c3ccccc3)c2=O)c1 [ARN16267] | 16.1 ± 2.4 µM | 7.6 ± 0.8 µM | 5.5 ± 1.3 µM | 4.7 ± 0.3 µM | 236 µM (≈ 105 µg/mL) | – | 30 ± 6 µM | – | – | –
COc1cc([C@@H]2c3cc4c(cc3[C@@H](O[C@@H]3O[C@@H]5CO[C@@H](C)O[C@H]5[C@H](O)[C@H]3O)[C@H]3COC(=O)[C@H]23)OCO4)cc(OC)c1O [etoposide] | – | – | – | – | – | – | […] | 1 ± 0.8 µM | 2.4 ± 0.9 µM | 1.3 ± 0.1 µM
O=C1NC(=S)NC(=O)C1C(=O)Nc1ccccc1 [merbarone, 6-hydroxy-4-oxo-N-phenyl-2-thioxo-1H-pyrimidine-5-carboxamide] | 26 ± 4.7 µM | – | – | – | – | – | 120 ± 12 µM | 18.9 ± 2 µM | 62.3 ± 6.4 µM | –

Reference: publication PMC7997578, “Design, Synthesis, Dynamic Docking, Biochemical Characterization, and in Vivo Pharmacokinetics Studies of Novel Topoisomerase II Poisons with Promising Antiproliferative Activity” (Journal of Medicinal Chemistry, 2020)
